According to patent US11858877B2 (priority 2019, dated 2024):

Legend:
[1] = biological target: T1, full length TRAF2 (Homo sapiens, UniProt Q12933); assay: Fluorescence-based thermal shift assay of TRAF2; assay type: binding; conditions: 1 uM GST-TRAF2, melt curve 25-99° C.
T1 construct: dose-dependent stabilizing effect on full length TRAF2; purchased Rockland
T1 sequence (Q12933 1-501): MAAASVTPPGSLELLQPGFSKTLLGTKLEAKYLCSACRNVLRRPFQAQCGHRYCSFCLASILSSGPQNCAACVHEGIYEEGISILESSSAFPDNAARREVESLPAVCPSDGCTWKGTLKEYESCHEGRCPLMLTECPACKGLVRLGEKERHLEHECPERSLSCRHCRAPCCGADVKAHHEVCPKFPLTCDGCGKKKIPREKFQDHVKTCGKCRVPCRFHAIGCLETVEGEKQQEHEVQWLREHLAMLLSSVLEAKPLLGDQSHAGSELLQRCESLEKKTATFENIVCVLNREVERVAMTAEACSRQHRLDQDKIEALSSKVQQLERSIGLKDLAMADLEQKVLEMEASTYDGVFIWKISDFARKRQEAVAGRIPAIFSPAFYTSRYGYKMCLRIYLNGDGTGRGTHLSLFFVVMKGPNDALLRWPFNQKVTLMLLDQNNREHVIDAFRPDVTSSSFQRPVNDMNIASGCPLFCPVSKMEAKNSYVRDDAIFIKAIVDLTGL
Description: To test whether the compounds interact with TRAF2 in vitro, the thermal stability of purified TRAF2 in the presence of each compound was measured.
TRAF2—compound interactions were measured by fluorescence-based thermal shift using an Applied Biosystems ABI QuantStudio(TM) 6 Flex System. […] PCR plates were covered with optical seal, shaken, and centrifuged after protein and compounds were added. The instrument was programmed in the Melt Curve mode and the Standard speed run. The reporter was selected as Rox and None for the quencher. Each melt curve was programmed as follows: 25° C. for 2 min, followed by a 0.05° C. increase per second from 25° C. to 99° C., and finally 99° C. for 2min. Fluorescence intensity was collected continuously. In the Melt Curve Filter section, X4 (580 ±10)-M4 (623±14) was selected for the Excitation Filter-Emission Filter. The raw data was extracted in MS-Excel format.

[2] = tested on: TNF-induced nuclear translocation of NF-kB; assay: Live-cell imaging of TNF-induced nuclear FP-RelA (NF-kB) translocation in single U2OS cells; assay type: cell-based, human; conditions: for Maximum fold change (Max) of nuclear FP-RelA / area under the fold change curve (AUC) of nuclear FP-RelA: 10 μM compound pretreatment before addition of TNF; for potency in restricting the signaling network upstream of NF-kB activation: TNF-stimulated U2OS FP-RelA cells; for nuclear mobilization of NF-kB: U2OS FP-RelA cells pre-treated with compound before exposure to TNF
Description: Rep., 22:585-599 (2018)).
To quantify the compounds' effect on NF-kB dynamics, each single-cell trajectory was decomposed into a series of descriptors (FIG. 3c) that transmit information within the cell about extracellular cytokine concentrations (Zhang et al., Cell. Syst., 5:638-645 e635 (2017)).
(§1) Live cells were imaged in an environmentally controlled chamber (37° C., 5% CO2) on a DeltaVision Elite microscope equipped with a pco.edge sCMOS camera and an Insight solid-state illumination module (GE). U2OS cells expressing FP-RelA/IKKγ were seeded at a density of 25000 cells/well 24 hours prior to live-cell imaging experiments on no. 1.5 glass bottom 96 well imaging plates (Matriplate). For imaging of FP-RelA nuclear translocation, live-cells were pre-treated with DMSO or indicated concentrations of compounds for 2 hours before exposure to either 100 ng/ml recombinant human TNF (Peprotech) or 100 ng/ml recombinant human IL1β (Peprotech). Wide-field epifluorescence and DIC images were collected using a 20× […] objective (0.45NA; Olympus). Cells were imaged for at least 30 minutes prior to addition of compounds. For detection of IKKγ puncta, live-cells were pre-treated with DMSO or indicated concentration of compounds for 2 hours before exposure to 100 ng/ml TNF. Wide-field epifluorescence and DIC images were collected using a 60× […] objective. […] Time-lapse images were collected over at least 4 fields per condition with a temporal resolution of 5 minutes per frame. Quantification of nuclear FP-RelA localization and the formation IKKγ puncta from flat-field and background corrected images was performed using customized scripts in Matlab and ImageJ.
(§2) For permutation tests, data from the TNF-only and the indicated experimental condition were combined and randomly distributed into ‘Permuted control’ and ‘Permuted experimental’ bins without replacement, preserving the size of the original control and experimental data sets. 10^6 permutations were performed and the difference between the means of permuted control and experimental data were calculated for each condition to generate a histogram. Two-tailed p-values were determined by computing the fraction of permuted data sets where Δmeanpermuted≥Δmeanunpermuted (FIGS. 12, 13, and 15).

[3] = tested on: IL1-induced dynamics of nuclear NF-kB; assay: Live-cell imaging of IL1-induced nuclear FP-RelA (NF-kB) dynamics in U2OS cells; assay type: cell-based, human; conditions: 10 μM compound, 100 ng/mL IL1
Description: Live cells were imaged in an environmentally controlled chamber (37° C., 5% CO2) on a DeltaVision Elite microscope equipped with a pco.edge sCMOS camera and an Insight solid-state illumination module (GE). U2OS cells expressing FP-RelA/IKKγ were seeded at a density of 25000 cells/well 24 hours prior to live-cell imaging experiments on no. 1.5 glass bottom 96 well imaging plates (Matriplate). For imaging of FP-RelA nuclear translocation, live-cells were pre-treated with DMSO or indicated concentrations of compounds for 2 hours before exposure to either 100 ng/ml recombinant human TNF (Peprotech) or 100 ng/ml recombinant human IL1β (Peprotech). Wide-field epifluorescence and DIC images were collected using a 20× […] objective (0.45NA; Olympus). […] Quantification of nuclear FP-RelA localization and the formation IKKγ puncta from flat-field and background corrected images was performed using customized scripts in Matlab and ImageJ.
as §2, with “Two-tailed p-values were determined by computing the fraction of permuted data sets where Δmeanpermuted≥Δmeanunpermuted (FIGS. 12, 13, and 15).” left out

[4] = tested on: mature TNFR1 complex; assay: Live-cell imaging of FP-IKK puncta in TNF-stimulated U2OS cells; assay type: cell-based, human; conditions: pretreated with compound before 100 ng/mL TNF
Description: as §1

[5] = tested on: IKKγ; assay: Western blot of IKKγ expression in CRISPR-modified U2OS cells; assay type: cell-based, human; conditions: Actin-corrected band intensity
Description: U2OS cells (parental and expressing EGFP-RelA/IKKγ via CRISPR Knock-in) were cultured for 24 hrs in complete growth medium. After treatments, cells were lysed in SDS-based lysis buffer consisting of 120 mM Tris-Cl, pH 6.8, 4% SDS supplemented with protease and phosphatase inhibitors at 4° C. for 30 min. Protein extracts were clarified by centrifugation at 4° C. at 12,000×g for 10 min. Lysate protein levels were quantified by BCA assay (Pierce). Samples were separated by SDS-PAGE, 25 μg total protein per lane, then transferred to PVDF membranes. Blocking was done in 5% milk in TBS for 1 hour. Primary antibodies directed at RelA and β-actin (#4764 and #3700 respectively; Cell Signaling Technology), IKKγ and GAPDH (sc-8330 and sc25778 respectively; Santa Cruz) were diluted in 5% milk in TBS-T and incubated overnight at 4° C. Alexa 680/800-conjugated secondary antibodies (LICOR) were used in combination with an Odyssey (LI-COR) scanner for detection and quantification of band intensities.

[6] = biological target: T2, recombinant activated IKKβ (Homo sapiens, UniProt O14920); assay: In vitro IKKβ kinase assay (ADP-Glo); assay type: biochemical; conditions: for IKKβ kinase activity: at 10-fold higher concentrations than used in cell-based experiments; for inhibitory activity over IKKβ kinase activity: at the concentrations used in this study
T2 construct: purchased Promega V4502
T2 sequence (O14920 1-756): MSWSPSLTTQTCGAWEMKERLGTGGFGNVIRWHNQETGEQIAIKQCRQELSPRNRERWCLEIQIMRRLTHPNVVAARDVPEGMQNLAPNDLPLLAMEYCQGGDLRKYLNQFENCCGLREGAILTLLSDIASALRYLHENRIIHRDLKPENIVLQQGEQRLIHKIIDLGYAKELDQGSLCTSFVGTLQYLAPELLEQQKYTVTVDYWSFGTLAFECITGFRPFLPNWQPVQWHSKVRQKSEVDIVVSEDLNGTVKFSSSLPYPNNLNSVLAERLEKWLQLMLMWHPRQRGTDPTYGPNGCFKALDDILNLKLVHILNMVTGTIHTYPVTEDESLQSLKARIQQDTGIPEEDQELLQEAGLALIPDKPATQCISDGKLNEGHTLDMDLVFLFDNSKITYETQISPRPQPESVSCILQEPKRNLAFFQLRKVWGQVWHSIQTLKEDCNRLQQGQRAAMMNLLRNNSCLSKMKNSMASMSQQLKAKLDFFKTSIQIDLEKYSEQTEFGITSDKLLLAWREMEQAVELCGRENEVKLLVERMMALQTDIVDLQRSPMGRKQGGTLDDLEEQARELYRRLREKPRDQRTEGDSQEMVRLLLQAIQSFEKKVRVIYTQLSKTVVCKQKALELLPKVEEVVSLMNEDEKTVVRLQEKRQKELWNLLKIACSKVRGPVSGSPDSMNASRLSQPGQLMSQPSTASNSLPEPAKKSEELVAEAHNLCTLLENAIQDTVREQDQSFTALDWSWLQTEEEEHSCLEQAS
Description: 1× kinase buffer A (40 mM Tris-HCl pH 7.4, 20 mM MgCl2, 0.1 mg/mL BSA, supplemented with 2 mM MnCl2, 2 mM DTT and 100 μM Sodium vanadate) was used to prepare all components of the reaction. All components were prepared in a 96-well plate and transferred to every other well of a 384-well opaque plate (Sigma-Aldrich, CLS3825-10EA) using a multichannel pipet. A 2.5× ATP/IKKtide substrate mix (62.5 μM ATP mixed with 0.5 μg/μL IKKtide) was prepared, and a 5× concentration of the indicated concentration of compounds in 0.5% DMSO, maintaining a final DMSO concentration of 0.1% in all reactions. […] The plate was briefly spun, and the reaction incubated at room temperature for 1 h. Next, 5 μL of ADP-Glo reagent were added to each well, spun and incubated for 40 minutes at room temperature. Finally, 10 μL of Kinase Detection Reagent were added to each well and incubated for 30 minutes at room temperature. Luminescence from each well was measured using an integration time of 500 ms in a M4 microplate reader (SpectraMax). Data from triplicate reactions were extracted and plotted.

[7] = tested on: U2OS cells; assay: Compound toxicity comparison, LIVE/DEAD Cell Imaging Kit; assay type: cell-based, human; conditions: 10 μM, 2 h, 16 h or 24 h
Description: Cytotoxicity of the three compounds was compared with Bay 11-7082 (Cayman, 10010266), an inhibitor of the NF-κB pathway at working concentrations of 1-10 μM, using the LIVE/DEAD Cell Imaging Kit (488/570) (Invitrogen, R37601). For each condition, 15,000 U2OS cells were seeded in 200 μL of growth medium in each well of 96-well plate 48 h before microscopy. Next, medium was changed to medium containing either DMSO, 10 μM of indicated compound, or 10 μM of Bay 11-7082 for the indicated duration (2 h, 16 h, or 24 h). Before imaging, medium was changed to phenol red-free FluoBrite DMEM (Gibco, A18967-01) containing 300 ng/mL of Hoechst 33342, and 1:10000 of both Live Green and Dead Red dyes of the LIVE/DEAD Cell Imaging Kit. Cells were incubated for 60 minutes and imaged on the Delta Vision Elite imaging system at 20× magnification with a […] objective (0.45NA; Olympus). Analysis was done using Cell Profiler to segment cells and quantify median nuclear intensity values. Further analysis was performed using custom scripts in MATLAB. Data from biological triplicates were plotted as the mean ± SD.

Row | SMILES | dose-dependent stabilizing effect on full length TRAF2 (thermal shift) [1] | Maximum fold change (Max) of nuclear FP-RelA [2] | area under the fold change curve (AUC) of nuclear FP-RelA [2] | potency in restricting the signaling network upstream of NF-kB activation [2] | nuclear mobilization of NF-kB [2] | IL1-induced dynamics of nuclear NF-kB vs IL1-only control cells [3] | number of TNF-induced FP-IKK puncta [4] | overall expression level of IKKγ [5] | IKKβ kinase activity [6] | inhibitory activity over IKKβ kinase activity [6] | cytotoxicity (fraction of surviving cells) [7]
1 | CC(C)CN1CCN(C(=O)COC(=O)c2ccc(S(C)(=O)=O)c([N+](=O)[O-])c2)CC1 [Compound 2] | subtle | significantly less | significantly less | low micromolar potency | reduced with increasing concentration | indistinguishable | greatly reduced | reduced | not inhibited | no direct inhibitory activity | low cytotoxicity
2 | CCC(OC(=O)c1ccc(S(C)(=O)=O)c([N+](=O)[O-])c1)C(=O)NC1C2CC3CC(C2)CC1C3 (stereo not shown) [Compound 3] | moderate | significantly less | significantly less | low micromolar potency | reduced with increasing concentration | indistinguishable | greatly reduced | reduced | not inhibited | no direct inhibitory activity | low cytotoxicity
